Tested on: Taxol-resistant ovarian cancer cell line SKOV3/TAX compared to ovarian cancer cell line SKOV3
Test: Cell viability of SKOV3 and SKOV3/TAX cultured in medium containing Taxol (cell counting kit-8)
Type: cell-based
Details: medium containing 30 μM Taxol, FIG. 1
Description: Ovarian cancer cell line SKOV3 (HTB-77™, Sigma-Aldrich, St. Louis, MO, USA) was cultured in a DMEM medium (31800-022, Gibco, Grand Island, NY, USA) containing 5 μM Taxol, 10% FBS and 1% Antibiotic-Antimycotic (15240062, Gibco, Grand Island, NY, USA) at 37° C. in a 5% CO2 incubator for 1 month. The cells were harvested and cultured continuously in a 5% CO2 incubator at 37° C., in a medium containing 10 µM Taxol for 2 months, in a medium containing 20 µM Taxol for 2 months, and in a medium containing 30 μM Taxol for 2 months (total for 7 months), and then the viable cell line was isolated. The isolated cell line was named SKOV3/TAX and the following experiments were performed using as an ovarian cancer cell line resistant to Taxol. In order to compare Taxol resistance, the SKOV3 and SKOV3/TAX cells were cultured at 5,000 cells per well in a 96-well plate in a medium containing Taxol at a concentration of 30 μM per well. Then, cell viabilities were measured at 0, 24, and 48 hours with a cell counting kit-8 (CK04-11, Dojindo, Rockville, MD, USA).

`CC(=O)O[C@H]1C(=O)[C@@]2(C)[C@H]([C@H](OC(=O)c3ccccc3)[C@]3(O)C[C@H](OC(=O)[C@H](O)[C@@H](NC(=O)c4ccccc4)c4ccccc4)C(C)=C1C3(C)C)[C@]1(OC(C)=O)CO[C@@H]1C[C@@H]2O` [Taxol, paclitaxel] was tested, and the “cell viability of SKOV3/TAX compared to SKOV3 (increase)” value (24 hours, 5,000 cells per well) was “approximately 1.67 fold” and the “cell viability of SKOV3/TAX compared to SKOV3 (increase)” value (48 hours, 5,000 cells per well) was “approximately 2.40 fold”.

Source: patent US20260103760A1, “ANALYTIC METHOD FOR DIAGNOSING OVARIAN CANCER RESISTANT TO PACLITAXEL” (CHA UNIVERSITY INDUSTRY-ACADEMIC COOPERATION FOUNDATION, priority 2022, published 2026)
